This is an account of results in patent publication US20110059043A1, “CHEMICAL COMPOUNDS” (priority 2009, published 2011).

For data set [1], the system named is HCV replicon cells Huh 9B. As to the kind of experiment: HCV replicon assay (luciferase). It is filed as cell-based. The following applies: Hepatitis C virus, reduction of replicon level by 50% vs untreated cell control, 72 h. Here is the method: (§1) HCV replicon cells Huh 9B (ReBlikon), containing the firefly luciferase—ubiquitin—neomycin phosphotransferase fusion protein and EMCV-IRES driven HCV polyprotein with cell culture adaptive mutations.
(§2) Cells were cultured at 37° C. in a 5% CO2 environment and split twice a week on seeding at 2×10^6 cells/flask on day 1 and 1×10^6 3 days later. G418 at 0.5 mg/ml was added to the culture medium but not the assay medium. The culture medium consisted of DMEM with […] glucose and glutamax (Gibco 61965-026) supplemented with 1×non-essential amino acids (Invitrogen 11140-035), penicillin (100 IU/ml)/streptomycin (100 μg/ml) (Invitrogen 15140-122), FCS (10%, 50 ml) and […] (Invitrogen 10131-027) & 10% Australian foetal calf serum (Invitrogen 10099-141).
(§3) A flask of cells was trypsinised and a cell count carried out. Cells were diluted to 100,000 cells/ml and 100 μl of this used to seed one opaque white 96-well plate (for the replicon assay) and one flat-bottomed clear plate (for the tox assay) for every five compounds to be tested for IC50. Wells G12 and H12 were left empty in the clear plate as the blank. Plates were then incubated at 37° C. in a 5% CO2 environment for 24 h.
(§4) On the following day compound dilutions are made up in medium at twice their desired final concentration in a clear round bottomed plate. All dilutions have a final DMSO concentration of 1%.
(§5) Once the dilution plate had been made up, controls and compounds were transferred to the assay plates (containing the cells) at 100 μl/well in duplicate wells. Exception: no compound was added to wells A1 and A2 of either plate and 100 μl of 1% DMSO was added to these instead. Plates were then incubated at 37° C. with 5% CO2 for 72 h.
At the end of the incubation time, the cells in the white plate were harvested by washing in PBS (100 μL per well) and gently tapping dry before addition of […] of lysis buffer (25 mM tris-phosphate, 8 mM MgCl2, 1 mM DTT, 1% Triton X-100, 15% glycerol. pH to 7.8 using KH2PO4 prior to triton and glycerol addition. Substrate was prepared: 23.5 mM beetle luciferin (Promega E1603), 26 mM ATP (Sigma O-2060) in […] Tris buffer pH 7.8 aliquoted and stored at −80° C. was thawed and diluted 1:50 in luciferase assay buffer (20 mM Tricine (Sigma T-0377), 1.07 mM magnesium carbonate hydroxide (Sigma M-5671), 0.1 mM EDTA (Sigma E-5134), 2.67 mM MgSO4(BDH 101514Y), 33.3 mM dithiothreitol (Sigma 150460) pH 7.8).
The M injector of the microplate luminometer (Lmax, Molecular Devices) was primed with 5×300 μl injections of the diluted substrate. After 5-60 min incubation in lysis buffer at room temperature, a plate was inserted into the luminometer and 100 μl luciferase assay reagent was added by the injector on the luminometer. The signal was measured using a 1 second delay followed by a 4 second measurement programme. The IC50, the concentration of the drug required for reducing the replicon level by 50% in relation to the untreated cell control value, can be calculated from the plot of the percentage reduction of the luciferase activity vs. drug concentration.

For data set [2], the system named is HCV replicon cells Huh 9B. It is filed as cell-based. Conditions: concentration reducing total cell area by 50% relative to DMSO controls; 72 h. The procedure: as §1, §2, §3, §4, §5
The clear plate was stained with 100 μl 0.5% methylene blue in 50% ethanol at room temperature for lh, followed by solvation of the absorbed methylene blue in 100 μl per well of 1% lauroylsarcosine. Absorbance of the plate was measured on a microplate spectrophotometer (Molecular Devices) and the absorbance for each concentration of compound expressed as a proportion of the relative DMSO control. The TD50, the concentration of drug required to reduce the total cell area by 50% relative to the DMSO controls, can be calculated by plotting the absorbance at 620 nm minus background against drug concentration.

Data set [3] concerns the target T1, Recombinant HCV polymerase (BK strain) (Hepatitis C virus genotype 1b, UniProt P26663).
T1 construct: Recombinant HCV polymerase (BK strain) was expressed and purified from E. coli with a 21 amino acid C-terminal deletion; His6; made in house; host or cells: E. coli
Put plainly: HCV polymerase enzyme assay (radiometric [33P]-UTP incorporation). It is filed as biochemical, HCV 1b. The procedure: Compounds were tested for inhibition of HCV polymerase using a radiometric [^33P]-UTP incorporation assay and a biotinylated U13:PolyA primer:template RNA substrate.
Recombinant HCV polymerase (BK strain) was expressed and purified from E. coli with a 21 amino acid C-terminal deletion and a His6-tag. The general assay buffer consisted of 20 mM Tris (pH 7.5), 25 mM KCl, 5 mM MgCl2, 3 mM DTT, 0.5 mg/ml BSA, 0.01% Tween20. The standard reaction, in 96 well plates, contained 10 μl of diluted compound, 50 μl of substrate and 40 μl of enzyme. Compounds, supplied as 10 mM stocks in DMSO, were diluted initially in neat DMSO, and subsequently buffer was added to give a DMSO concentration of 30%; 10 μl of this was added to the assay plate to give a final concentration in the 100 μl assay of 3% DMSO. The biotinylated U13:PolyA RNA substrate was pre-annealed with 40 μM 5′-biotinylated U13 (Dharmacon) and 213 μg/ml PolyA (Amersham Biosciences) in water incubated at 70° C. for 5 minutes before being cooled on ice. Substrate (50 μl) was added in buffer to give a final concentration in the 100 μl assay of 125 nM biotinylated U13:0.63 μg/ml PolyA and 200 nM UTP with 0.4 μCi [^33P]-UTP per well (Perkin Elmer). The reaction was initiated by the addition of 40 μl of enzyme in buffer to give 100 nM final concentration. The reaction was incubated at 25° C. for 100 minutes and then stopped by addition of 100 μl of 100 mM EDTA. The samples were then transferred to 96 well Streptavidin-coated FlashPlates (Perkin Elmer) and incubated at room temperature for ˜1 hour to allow binding to occur. The plates were then washed three times with phosphate-buffered saline containing 0.05% Tween20 in an automated plate washer to remove unincorporated [^33P]-UTP, and then counted in a
Each plate included a set of positive controls (no compound, maximum signal) and negative controls (no enzyme, minimum signal) and in each run at least one reference is compound was included to validate the assay. The IC50, concentration required to inhibit the enzyme activity by 50%, was calculated using an 8-point IC50 curve and fitted using the program XLfit (IDBS).

T1 sequence (P26663 2420-2989): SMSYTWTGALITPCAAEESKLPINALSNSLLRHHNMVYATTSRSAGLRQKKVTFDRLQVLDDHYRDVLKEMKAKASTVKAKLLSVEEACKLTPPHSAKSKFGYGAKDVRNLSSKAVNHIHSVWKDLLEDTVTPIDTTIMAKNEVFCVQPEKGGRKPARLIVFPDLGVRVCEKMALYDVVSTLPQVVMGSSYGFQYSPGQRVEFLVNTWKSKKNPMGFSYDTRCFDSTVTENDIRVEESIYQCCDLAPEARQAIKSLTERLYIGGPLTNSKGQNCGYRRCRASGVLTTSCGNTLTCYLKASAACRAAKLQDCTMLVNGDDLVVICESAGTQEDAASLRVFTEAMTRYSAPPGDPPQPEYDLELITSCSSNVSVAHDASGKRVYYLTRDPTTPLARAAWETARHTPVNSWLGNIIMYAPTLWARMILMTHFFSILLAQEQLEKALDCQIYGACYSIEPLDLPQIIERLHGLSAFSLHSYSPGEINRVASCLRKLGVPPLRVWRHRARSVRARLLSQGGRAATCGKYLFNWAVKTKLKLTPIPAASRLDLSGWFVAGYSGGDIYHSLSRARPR

Regarding `COCCOc1ccc(Cl)cc1C(=O)NC1N=C(c2c(Cl)cc(Cl)cc2Cl)c2ccccc2NC1=O` (stereo not drawn) [Example 14, 5-Chloro-2-(2-methoxyethoxy)-N-(2-oxo-5-(2,4,6-trichlorophenyl)-2,3-dihydro-1H-benzo[e][1,4]diazepin-3-yl)benzamide], the IC50 was 83.3 nM in data set [1] and 154 nM in data set [3]. Further, the “Replicon Assay Value TD50” value in data set [2] came to 19.834 µM.

With `COCCOc1ccccc1C(=O)NC1N=C(c2c(Cl)cc(Cl)cc2Cl)c2ccccc2NC1=O` (stereo not drawn) [Example 15, 2-(2-Methoxyethoxy)-N-(2-oxo-5-(2,4,6-trichlorophenyl)-2,3-dihydro-1H-benzo[e][1,4]diazepin-3-yl)benzamide], the IC50 was 110 nM in data set [1] and 299 nM in data set [3]. The “Replicon Assay Value TD50” value in data set [2] is 25.845 µM.

On to `COCCOc1ccc(F)cc1C(=O)NC1N=C(c2c(Cl)cc(Cl)cc2Cl)c2ccccc2NC1=O` (stereo not drawn) [Example 16, 5-Fluoro-2-(2-methoxyethoxy)-N-(2-oxo-5-(2,4,6-trichlorophenyl)-2,3-dihydro-1H-benzo[e][1,4]diazepin-3-yl)benzamide], for which the IC50 is 38.7 nM in data set [1] and 119 nM in data set [3]. The “Replicon Assay Value TD50” value in data set [2] was determined as 22.094 µM.

With `COCCOc1ccc(C)cc1C(=O)NC1N=C(c2c(Cl)cc(Cl)cc2Cl)c2ccccc2NC1=O` (stereo not drawn) [Example 17, 2-(2-Methoxyethoxy)-5-methyl-N-(2-oxo-5-(2,4,6-trichlorophenyl)-2,3-dihydro-1H-benzo[e][1,4]diazepin-3-yl)benzamide], the IC50 is 78.8 nM in data set [1] and 235 nM in data set [3]. In addition, the “Replicon Assay Value TD50” value in data set [2] is greater than 25 µM.

Turning to `COCCOc1ccc(C(C)=O)cc1C(=O)NC1N=C(c2c(Cl)cc(Cl)cc2Cl)c2ccccc2NC1=O` (stereo not drawn) [Example 18, 5-Acetyl-2-(2-methoxyethoxy)-N-(2-oxo-5-(2,4,6-trichlorophenyl)-2,3-dihydro-1H-benzo[e][1,4]diazepin-3-yl)benzamide], the IC50 in data set [1] stood at 876 nM; in data set [3] it was 385 nM. In data set [2], the “Replicon Assay Value TD50” value was 15.802 µM.

For `COCCOc1ccc(OC(F)(F)F)cc1C(=O)NC1N=C(c2c(Cl)cc(Cl)cc2Cl)c2ccccc2NC1=O` (stereo not drawn) [Example 19, 2-(2-Methoxyethoxy)-N-(2-oxo-5-(2,4,6-trichlorophenyl)-2,3-dihydro-1H-benzo[e][1,4]diazepin-3-yl)-5-(trifluoromethoxy)benzamide], the IC50 in data set [1] was found to be 645 nM; in data set [3], 2150 nM. Besides, the “Replicon Assay Value TD50” value in data set [2] is greater than 25 µM.

As to `COCCOc1ccc(Br)cc1C(=O)NC1N=C(c2c(Cl)cc(Cl)cc2Cl)c2ccccc2NC1=O` (stereo not drawn) [Example 20, 5-Bromo-2-(2-methoxyethoxy)-N-(2-oxo-5-(2,4,6-trichlorophenyl)-2,3-dihydro-1H-benzo[e][1,4]diazepin-3-yl)benzamide], the IC50 is 195 nM in data set [1] and 535 nM in data set [3]. Further, in data set [2], the “Replicon Assay Value TD50” value was greater than 25 µM.

For the compound `CC(=O)NCCOc1ccc(Cl)cc1C(=O)NC1N=C(c2c(Cl)cc(Cl)cc2Cl)c2ccccc2NC1=O` (stereo not drawn) [Example 21, 2-(2-Acetamidoethoxy)-5-chloro-N-(2-oxo-5-(2,4,6-trichlorophenyl)-2,3-dihydro-1H-benzo[e][1,4]diazepin-3-yl)benzamide], the half-inhibitory concentration (IC50) in data set [1] is 824 nM; in data set [3], 98.7 nM. Moreover, the “Replicon Assay Value TD50” value in data set [2] worked out at 13.188 µM.

On to `CCC(=O)NCCOc1ccc(Cl)cc1C(=O)NC1N=C(c2c(Cl)cc(Cl)cc2Cl)c2ccccc2NC1=O` (stereo not drawn) [Example 22, 5-Chloro-N-(2-oxo-5-(2,4,6-trichlorophenyl)-2,3-dihydro-1H-benzo[e][1,4]diazepin-3-yl)-2-(2-propionamidoethoxy)benzamide], for which the IC50 in data set [1] amounted to 953 nM; in data set [3], 197 nM. Besides, in data set [2], the “Replicon Assay Value TD50” value stood at 12.304 µM.

Regarding `CS(=O)(=O)NCCOc1ccc(Cl)cc1C(=O)NC1N=C(c2c(Cl)cc(Cl)cc2Cl)c2ccccc2NC1=O` (stereo not drawn) [Example 23, 5-Chloro-2-(2-(methylsulfonamido)ethoxy)-N-(2-oxo-5-(2,4,6-trichlorophenyl)-2,3-dihydro-1H-benzo[e][1,4]diazepin-3-yl)benzamide], the IC50 came to 2910 nM in data set [1] and 952 nM in data set [3]. The “Replicon Assay Value TD50” value in data set [2] is 12.744 µM.

Regarding `CCNC(=O)NCCOc1ccc(Cl)cc1C(=O)NC1N=C(c2c(Cl)cc(Cl)cc2Cl)c2ccccc2NC1=O` (stereo not drawn) [Example 24, 5-Chloro-2-(2-(3-ethylureido)ethoxy)-N-(2-oxo-5-(2,4,6-trichlorophenyl)-2,3-dihydro-1H-benzo[e][1,4]diazepin-3-yl)benzamide], the figures for the IC50 in data set [1] and in data set [3] were 1280 nM and 281 nM, respectively. Also, the “Replicon Assay Value TD50” value in data set [2] is 11.815 µM.

Take `CC(=O)NCCCOc1ccc(Cl)cc1C(=O)NC1N=C(c2c(Cl)cc(Cl)cc2Cl)c2ccccc2NC1=O` (stereo not drawn) [Example 25, 2-(3-Acetamidopropoxy)-5-chloro-N-(2-oxo-5-(2,4,6-trichlorophenyl)-2,3-dihydro-1H-benzo[e][1,4]diazepin-3-yl)benzamide]: the values for the IC50 in data set [1] and in data set [3] were 575 nM and 459 nM, respectively. Besides, the “Replicon Assay Value TD50” value in data set [2] amounted to 12.774 µM.

Regarding `CCC(=O)NCCCOc1ccc(Cl)cc1C(=O)NC1N=C(c2c(Cl)cc(Cl)cc2Cl)c2ccccc2NC1=O` (stereo not drawn) [Example 26, 5-Chloro-N-(2-oxo-5-(2,4,6-trichlorophenyl)-2,3-dihydro-1H-benzo[e][1,4]diazepin-3-yl)-2-(3-propionamidopropoxy)benzamide], the figures for the IC50 in data set [1] and in data set [3] were 1620 nM and 647 nM, respectively. Also, the “Replicon Assay Value TD50” value in data set [2] came out at 12.354 µM.
